These results are taken from patent publication US10787446B2 (GENENTECH, INC., priority 2015, dated 2020).

The assay concerns the target T1, hNav1.7 and the β1 subunit (Homo sapiens, UniProt Q15858).
T1 construct: expressed in transfected cells
Briefly: Tritiated compound competitive binding to membranes from cells heterologously expressing hNav1.7 and the β1 subunit (LBA). The settings on record: competition with 100 pM [3H]compound, 18 h, room temperature; IC50 by 4 parameter logistic model. The procedure: Example 235 Tritiated Compound Binding to Membranes Isolated from Cells that Heterologously Express hNav1.7 and the β1 Subunit
Preparation of membranes containing recombinantly expressed sodium channels: Frozen recombinant cell pellets were thawed on ice and diluted to 4 times the cell pellet weight with ice cold 50 mM Tris HCl, pH 7.4 buffer. The cell suspensions were homogenized on ice using a motorized glass dounce homogeniser. Homogenates were further diluted 8.4 times with ice cold 50 mM Tris HCl, pH 7.4 buffer and then centrifuged at 200×g at 4° C. for 15 min. The supernatants were collected and centrifuged at 10000×g at 4° C. for 50 min. The pellets were then re-suspended in 100 mM NaCl, 20 mM Tris HCl, pH 7.4 buffer containing 1% v/v protease inhibitors (Calbiochem) and re-homogenized on ice. The homogenized membranes were then processed through a syringe equipped with a 26 gauge needle. Protein concentrations were determined by Bradford Assay and the membranes were stored at −80° C.
Radioligand Binding Studies:
Saturation experiments. A competitive NaV1.7 inhibitor having a methyl group was tritiated. Three tritiums were incorporated in place of methyl hydrogens to generate [^3H]compound. Binding of this radioligand was performed in 5 mL borosilicate glass test tubes at room temperature. Binding was initiated by adding membranes to increasing concentrations of [^3H]compound in 100 mM NaCl, 20 mM Tris HCl, pH 7.4 buffer containing 0.01% w/v bovine serum albumin (BSA) for 18 h. […] After 18 h, the reactants were filtered through GF/C glass fiber filters presoaked in 0.5% w/v polyethylene imine. […] [^3H]compound bound to filters was quantified by liquid scintillation counting.
Competitive Binding Experiments:
Binding reactions were performed in 96-well polypropylene plates at room temperature for 18 h. In 360 μL, membranes were incubated with 100 pM [^3H]compound and increasing concentrations of Test Compound. […] Reactions were transferred and filtered through 96-well glass fiber/C filter plates presoaked with 0.5% polyethylene imine. The filtered reactions were washed 5 times with 200 μL ice cold buffer containing 0.25% BSA. Bound radioactivity was determined by liquid scintillation counting.
Data Analysis: For saturation experiments, non-specific binding was subtracted from total binding to provide specific binding and these values were recalculated in terms of pmol ligand bound per mg protein. Saturation curves were constructed and dissociation constants were calculated using the single site ligand binding model: Beq=(Bmax*X)/(X+Kd), where Beq is the amount of ligand bound at equilibrium, Bmax is the maximum receptor density, Kd is the dissociation constant for the ligand, and X is the free ligand concentration. For competition studies percent inhibition was determined and IC50 values were calculated using a 4 parameter logistic model (% inhibition=(A+((B−A)/(1+((x/C)^D)))) using XLfit, where A and B are the maximal and minimum inhibition respectively, C is the IC50 concentration and D is the (Hill) slope.

Where a name gives a salt, the structure may show the parent alone.

T1 sequence (Q15858 whole entry): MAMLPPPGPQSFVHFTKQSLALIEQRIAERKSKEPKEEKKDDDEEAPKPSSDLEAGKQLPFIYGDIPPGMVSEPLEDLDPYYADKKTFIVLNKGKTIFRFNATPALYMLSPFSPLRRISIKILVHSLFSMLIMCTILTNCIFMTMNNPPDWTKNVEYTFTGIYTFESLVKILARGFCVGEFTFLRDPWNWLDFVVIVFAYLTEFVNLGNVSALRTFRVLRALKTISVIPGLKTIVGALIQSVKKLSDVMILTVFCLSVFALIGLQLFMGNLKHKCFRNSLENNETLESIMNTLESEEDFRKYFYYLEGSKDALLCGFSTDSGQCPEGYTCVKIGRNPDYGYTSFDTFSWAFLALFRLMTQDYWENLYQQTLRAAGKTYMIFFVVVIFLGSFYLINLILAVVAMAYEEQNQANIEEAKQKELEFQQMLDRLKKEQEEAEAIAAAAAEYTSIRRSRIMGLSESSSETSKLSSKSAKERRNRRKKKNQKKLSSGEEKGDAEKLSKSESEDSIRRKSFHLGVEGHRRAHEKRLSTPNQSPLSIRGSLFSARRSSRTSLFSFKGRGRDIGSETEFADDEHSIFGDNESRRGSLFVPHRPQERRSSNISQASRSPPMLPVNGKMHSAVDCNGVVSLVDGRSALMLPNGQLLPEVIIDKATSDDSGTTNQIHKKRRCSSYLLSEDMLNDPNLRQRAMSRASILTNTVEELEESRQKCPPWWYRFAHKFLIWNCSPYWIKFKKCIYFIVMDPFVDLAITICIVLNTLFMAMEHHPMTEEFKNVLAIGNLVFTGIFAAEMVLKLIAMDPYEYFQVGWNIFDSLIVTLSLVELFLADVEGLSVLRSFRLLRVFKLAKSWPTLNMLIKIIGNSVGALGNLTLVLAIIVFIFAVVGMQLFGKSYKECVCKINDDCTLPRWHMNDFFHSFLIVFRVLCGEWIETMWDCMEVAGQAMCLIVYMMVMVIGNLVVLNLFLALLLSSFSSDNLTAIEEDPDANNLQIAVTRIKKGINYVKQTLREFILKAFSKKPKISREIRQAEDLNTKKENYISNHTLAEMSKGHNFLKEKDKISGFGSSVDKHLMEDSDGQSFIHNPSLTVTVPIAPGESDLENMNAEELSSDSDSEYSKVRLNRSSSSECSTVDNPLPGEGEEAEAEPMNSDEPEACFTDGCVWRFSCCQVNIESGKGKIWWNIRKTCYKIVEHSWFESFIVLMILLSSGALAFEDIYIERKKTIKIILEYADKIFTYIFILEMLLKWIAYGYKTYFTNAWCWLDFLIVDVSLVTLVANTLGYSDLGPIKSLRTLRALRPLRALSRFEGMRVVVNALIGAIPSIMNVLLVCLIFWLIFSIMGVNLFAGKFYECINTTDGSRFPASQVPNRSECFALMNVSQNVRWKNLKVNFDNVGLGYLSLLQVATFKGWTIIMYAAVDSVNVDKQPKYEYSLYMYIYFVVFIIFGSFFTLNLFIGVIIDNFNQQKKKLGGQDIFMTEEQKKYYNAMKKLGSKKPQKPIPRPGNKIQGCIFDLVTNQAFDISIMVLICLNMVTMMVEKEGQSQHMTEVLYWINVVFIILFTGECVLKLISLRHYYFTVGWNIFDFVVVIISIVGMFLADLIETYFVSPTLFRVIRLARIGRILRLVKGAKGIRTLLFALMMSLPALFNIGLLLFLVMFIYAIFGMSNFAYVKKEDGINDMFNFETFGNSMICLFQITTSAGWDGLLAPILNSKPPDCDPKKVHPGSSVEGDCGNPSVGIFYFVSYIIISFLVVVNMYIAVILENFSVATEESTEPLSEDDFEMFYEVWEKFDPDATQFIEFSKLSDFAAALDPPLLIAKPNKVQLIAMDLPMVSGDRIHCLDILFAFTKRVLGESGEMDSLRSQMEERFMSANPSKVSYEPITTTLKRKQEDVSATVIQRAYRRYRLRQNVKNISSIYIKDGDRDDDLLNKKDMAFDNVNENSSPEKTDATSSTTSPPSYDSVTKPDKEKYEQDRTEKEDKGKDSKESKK
T1 sequence (Q07699 19-218 partner): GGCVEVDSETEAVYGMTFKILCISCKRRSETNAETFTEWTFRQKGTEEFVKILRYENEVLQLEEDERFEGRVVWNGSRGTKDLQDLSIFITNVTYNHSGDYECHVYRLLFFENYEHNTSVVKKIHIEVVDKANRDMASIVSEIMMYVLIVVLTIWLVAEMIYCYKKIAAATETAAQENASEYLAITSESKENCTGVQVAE

On to `O=S(=O)(Nc1ncns1)c1ccc2c(c1)CCC[C@H]2N1CCCC[C@H]1c1ccccc1` (single isomer, unassigned) [Example 53, trifluoroacetic acid salt], for which the “Nav1.7 (LBA)” value was determined as 0.271 µM.
As for `O=S(=O)(Nc1ncns1)c1ccc2c(c1)CCC[C@@H]2N1CCCC[C@H]1c1ccccc1` (single isomer, unassigned) [Example 54], the “Nav1.7 (LBA)” value turned out to be 0.411 µM.
On to `O=S(=O)(Nc1ncns1)c1ccc2c(c1)CCC[C@H]2N1CCCC[C@@H]1c1ccccc1` (single isomer, unassigned) [Example 55], for which the “Nav1.7 (LBA)” value is 0.286 µM.
Turning to `O=S(=O)(Nc1ncns1)c1ccc2c(c1)CCC[C@@H]2N1CCCC[C@@H]1c1ccccc1` (single isomer, unassigned) [Example 56], the “Nav1.7 (LBA)” value was 1.25 µM.
Consider `C[C@@H](c1ccc(S(=O)(=O)Nc2ncns2)cc1Cl)N1CCCC[C@@H]1c1ccccc1` (single isomer, unassigned) [Example 59], for which the “Nav1.7 (LBA)” value worked out at 5.04 µM.
As for `C[C@H](c1ccc(S(=O)(=O)Nc2ncns2)cc1Cl)N1CCCC[C@@H]1c1ccccc1` (single isomer, unassigned) [Example 60], the “Nav1.7 (LBA)” value amounted to 0.33 µM.
As to `C[C@H](c1ccc(S(=O)(=O)Nc2ncns2)cc1Cl)N1CCCC[C@H]1c1ccccc1` (single isomer, unassigned) [Example 61], the “Nav1.7 (LBA)” value stood at 3.98 µM.
For `O=S(=O)(Nc1ncns1)c1ccc2c(c1)CCC2N1CCCCC1c1ccccc1` (single isomer, unassigned) [Example 66, 1-(2-phenylpiperidin-1-yl)-N-(1,2,4-thiadiazol-5-yl)-2,3-dihydro-1H-indene-5-sulfonamide], the “Nav1.7 (LBA)” value worked out at 0.597 µM.
As for `O=S(=O)(Nc1ncns1)c1ccc2c(c1)OCC[C@@H]2N1CCCC[C@H]1c1ccc(F)cc1` (single isomer, unassigned) [Example 76], the “Nav1.7 (LBA)” value amounted to 0.0179 µM.
Turning to `O=S(=O)(Nc1ncns1)c1ccc2c(c1)OCC[C@H]2N1CCCC[C@H]1c1ccc(F)cc1` (single isomer, unassigned) [Example 77], the “Nav1.7 (LBA)” value amounted to 0.198 µM.
As for `O=S(=O)(Nc1ncns1)c1ccc2c(c1)OCC[C@@H]2N1CCCC[C@@H]1c1ccc(F)cc1` (single isomer, unassigned) [Example 78], the figure is 0.679 µM; as for `O=S(=O)(Nc1ncns1)c1ccc2c(c1)OCC[C@H]2N1CCCC[C@@H]1c1ccc(F)cc1` (single isomer, unassigned) [Example 79], 0.0186 µM; as for `O=S(=O)(Nc1ncns1)c1ccc2c(c1)OCC[C@@H]2N1CCc2ccccc2[C@H]1c1ccccc1` (single isomer, unassigned) [Example 80], 0.142 µM.
Regarding `O=S(=O)(Nc1ncns1)c1ccc2c(c1)OCC[C@H]2N1CCc2ccccc2[C@H]1c1ccccc1` (single isomer, unassigned) [Example 81], the “Nav1.7 (LBA)” value came out at 0.435 µM.
As to `O=S(=O)(Nc1ncns1)c1ccc2c(c1)OCC[C@@H]2N1CCN(CC(F)(F)F)C[C@H]1c1ccccc1` (single isomer, unassigned) [Example 82], the “Nav1.7 (LBA)” value turned out to be 0.0156 µM.
As for `O=S(=O)(Nc1ncns1)c1ccc2c(c1)OCC[C@H]2N1CCN(CC(F)(F)F)C[C@H]1c1ccccc1` (single isomer, unassigned) [Example 83], the figure is 0.0128 µM; as for `O=S(=O)(Nc1ncns1)c1cc2c(cc1F)[C@@H](N1CCCC[C@H]1c1ccccc1)CCO2` (single isomer, unassigned) [Example 84], 0.00991 µM; as for `O=S(=O)(Nc1ncns1)c1cc2c(cc1F)[C@H](N1CCCC[C@H]1c1ccccc1)CCO2` (single isomer, unassigned) [Example 85], 0.218 µM.
As for `O=S(=O)(Nc1nccs1)c1cc2c(cc1F)[C@@H](N1CCCC[C@H]1c1ccccc1)CCO2` (single isomer, unassigned) [Example 90], the “Nav1.7 (LBA)” value is 0.00862 µM.
For `O=S(=O)(Nc1nccs1)c1cc2c(cc1F)[C@H](N1CCCC[C@H]1c1ccccc1)CCO2` (single isomer, unassigned) [Example 91], the “Nav1.7 (LBA)” value came to 0.109 µM.
Regarding `O=S(=O)(Nc1nccs1)c1cc2c(cc1F)[C@@H](N1CC[C@@H](C(F)(F)F)C[C@H]1c1ccc(F)cc1)CCO2` (single isomer, unassigned) [Example 92], the “Nav1.7 (LBA)” value turned out to be 0.000828 µM.
For the compound `O=S(=O)(Nc1ncccn1)c1cc2c(cc1F)[C@@H](N1CCCC[C@H]1c1ccccc1)CCO2` (single isomer, unassigned) [Example 94], the “Nav1.7 (LBA)” value turned out to be 0.423 µM.
As to `O=S(=O)(Nc1ncccn1)c1cc2c(cc1F)[C@H](N1CCCC[C@H]1c1ccccc1)CCO2` (single isomer, unassigned) [Example 95], the “Nav1.7 (LBA)” value was determined as 1.54 µM.
As to `O=S(=O)(Nc1ncccn1)c1cc2c(cc1F)[C@@H](N1CC[C@@H](C(F)(F)F)C[C@H]1c1ccc(F)cc1)CCO2` (single isomer, unassigned) [Example 97], the “Nav1.7 (LBA)” value was determined as 0.0217 µM.
`O=S(=O)(Nc1cscn1)c1cc2c(cc1F)[C@H](N1CCCC[C@H]1c1ccccc1)CCO2` (single isomer, unassigned) [Example 98]: the “Nav1.7 (LBA)” value came out at 1.79 µM.
For the compound `O=S(=O)(Nc1cscn1)c1cc2c(cc1F)[C@@H](N1CCCC[C@H]1c1ccccc1)CCO2` (single isomer, unassigned) [Example 99], the “Nav1.7 (LBA)” value stood at 0.091 µM.
Consider `O=S(=O)(Nc1nccs1)c1ccc2c(c1)OCC[C@@H]2N1CCCC[C@@H]1c1ccc(F)cc1` (single isomer, unassigned) [Example 100], for which the “Nav1.7 (LBA)” value was determined as 0.0221 µM.
Take `O=S(=O)(Nc1nccs1)c1ccc2c(c1)OCC[C@@H]2N1CCCC[C@H]1c1ccc(F)cc1` (single isomer, unassigned) [Example 101]: the “Nav1.7 (LBA)” value came out at 0.022 µM.
`O=S(=O)(Nc1nccs1)c1ccc2c(c1)OCC[C@@H]2N1CCCC[C@H]1c1ccccc1` (single isomer, unassigned) [Example 102]: the “Nav1.7 (LBA)” value was 0.072 µM.
As to `O=S(=O)(Nc1nccs1)c1ccc2c(c1)OCC[C@H]2N1CCCC[C@H]1c1ccccc1` (single isomer, unassigned) [Example 103], the “Nav1.7 (LBA)” value turned out to be 0.90 µM.
As for `O=S(=O)(Nc1ncns1)c1cc(F)c(CN2CCC3(CC3)C[C@@H]2c2ccccc2)cc1F` (single isomer, unassigned) [Example 109], the “Nav1.7 (LBA)” value came to 1.57 µM.
The result for `O=S(=O)(Nc1ncns1)c1cc(F)c(CN2CC[C@@H](OC(F)(F)F)C[C@H]2c2ccccc2)cc1F` (single isomer, unassigned) [Example 111] reads 0.0923 µM; that for `O=S(=O)(Nc1ncns1)c1cc(F)c(CN2CC[C@H](O)C[C@@H]2c2ccccc2)cc1F` (single isomer, unassigned) [Example 113], 8.59 µM.
Regarding `O=S(=O)(Nc1ncns1)c1ccc2c(c1)OCC[C@@H]2N1CCCC[C@H]1c1cccnc1` (single isomer, unassigned) [Example 121], the “Nav1.7 (LBA)” value is 0.0237 µM.
As to `O=S(=O)(Nc1ncns1)c1ccc2c(c1)OCC[C@H]2N1CCCC[C@H]1c1cccnc1` (single isomer, unassigned) [Example 122], the “Nav1.7 (LBA)” value stood at 0.0125 µM.
